Reference: ChEMBL document CHEMBL1201862, “PubChem BioAssay data set” (2004)
Active and inactive are the calls of the source.

Assays:
[1] = target: G-protein coupled receptor 35 (Homo sapiens, UniProt Q9HC97); assay: GPR35 antagonists blocking zaprinast-driven arrestin recruitment, primary screen, imaging, U2OS, beta-arrestin-GFP, zaprinast agonist (AID 2058); assay type: functional;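 note: antagonist potency meaning inhibition of agonist-induced arrestin redistribution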
[2] = cytotoxicity in HEK-293T cells, dose response, cytotoxicity control for TCR NF-kB inhibitor project, luminescence, T-cell screen hits (AID 489026); assay type: functional, cell-based;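 note: cells exposed to compound about 14 hours before the viability readout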
[3] = target: T1, Microphthalmia-associated transcription factor (Homo sapiens, UniProt O75030); assay: TRPM1 promoter luciferase signal decrease, dose response, MITF inhibitor project, cell-based, SK-MEL-5, cherry-picked, set 3 (AID 493073); assay type: functional
T1 sequence (O75030 whole entry): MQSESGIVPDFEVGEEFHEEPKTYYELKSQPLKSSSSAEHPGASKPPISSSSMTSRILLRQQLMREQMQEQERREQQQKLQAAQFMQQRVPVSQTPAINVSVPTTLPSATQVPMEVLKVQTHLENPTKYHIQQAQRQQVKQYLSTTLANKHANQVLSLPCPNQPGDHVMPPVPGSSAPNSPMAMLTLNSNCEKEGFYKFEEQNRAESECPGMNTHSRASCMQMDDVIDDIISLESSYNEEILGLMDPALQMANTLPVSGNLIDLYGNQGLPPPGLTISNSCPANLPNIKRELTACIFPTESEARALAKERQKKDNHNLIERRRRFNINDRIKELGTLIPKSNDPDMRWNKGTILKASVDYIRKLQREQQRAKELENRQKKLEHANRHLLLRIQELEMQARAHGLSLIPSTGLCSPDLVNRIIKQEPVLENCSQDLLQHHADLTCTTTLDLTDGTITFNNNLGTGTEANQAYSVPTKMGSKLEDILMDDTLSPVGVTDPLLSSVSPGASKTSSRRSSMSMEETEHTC

[4] = tested on: A-375; assay: A375 melanoma cell viability reduction, dose response, counter-screen for MITF modulator project, cherry-pick samples, set 2 (AID 540335); assay type: functional, cell-based; conditions: Homo sapiens
[5] = target: COUP transcription factor 2 (Homo sapiens, UniProt P24468); assay: Luminescence-based cell-based high throughput dose response assay to identify inhibitors of COUP-TFII (NR2F2).; assay type: functional;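 note: HEK293 cells transiently cotransfected with COUP-TFII expression vector and reporter; luciferase reporter luminescence driven by COUP-TFII from the pX2-168 reporter plasmid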
[6] = tested on: Streptococcus sp. 'group A'; assay: growth inhibition of control SK(-) GAS strain, dose response, counter-screen for streptokinase expression inhibitor project, luminescence, kanamycin, BacTiterGlo, confirmation (AID 1900); assay type: functional, organism-based
[7] = target: T2, Streptokinase A (Streptococcus pyogenes serotype M1, UniProt P10520); assay: S. pyogenes streptokinase expression inhibitors, potency, dose response, plasminogen activation absorbance, OD405 (AID 1914); assay type: functional, Streptococcus pyogenes M1 GAS;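 note: secreted streptokinase activity via plasminogen activation per viability signal from cell pellet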
T2 sequence (P10520 whole entry): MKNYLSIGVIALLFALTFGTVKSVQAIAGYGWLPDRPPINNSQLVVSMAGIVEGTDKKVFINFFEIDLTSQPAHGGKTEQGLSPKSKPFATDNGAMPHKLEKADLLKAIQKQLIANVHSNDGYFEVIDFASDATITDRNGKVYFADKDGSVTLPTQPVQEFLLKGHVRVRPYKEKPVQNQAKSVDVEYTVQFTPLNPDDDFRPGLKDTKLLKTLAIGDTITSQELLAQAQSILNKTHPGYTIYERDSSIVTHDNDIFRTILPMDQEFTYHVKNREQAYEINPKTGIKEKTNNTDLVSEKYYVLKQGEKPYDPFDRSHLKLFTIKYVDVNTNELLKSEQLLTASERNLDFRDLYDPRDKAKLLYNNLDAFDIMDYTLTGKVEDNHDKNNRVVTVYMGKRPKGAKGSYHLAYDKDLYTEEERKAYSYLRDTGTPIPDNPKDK

[8] = tested on: Streptococcus; assay: Group A Streptococcus viability loss, dose response, counter-screen for streptokinase expression inhibitor project, luminescence, BacTiterGlo (AID 1915); assay type: functional, organism-based;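 note: potency for reduction of bacterial viability or growth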
[9] = target: Disintegrin and metalloproteinase domain-containing protein 17 (Homo sapiens, UniProt P78536); assay: exosite inhibitors of ADAM17, dose response, biochemical (AID 743260)
[10] = ADAM10 protease inhibitors, dose response, selectivity assay for ADAM17 exosite inhibitor project, biochemical, FRET peptide substrate, recombinant human ADAM10 (AID 743259);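 note: ADAM10 enzyme cleaving a FRET peptide substrate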
[11] = THP-1 cell cytotoxicity, dose response, cytotoxicity control for Vif-APOBEC3G degradation inhibitor project, THP-1 cells (AID 1117359); assay type: functional; conditions: Human immunodeficiency virus 1, THP-1
[12] = inhibitors of firefly luciferase expression or activity, dose response, H4 neuroglioma cells, luminescence (AID 1990); assay type: functional, cell-based
[13] = Luminescence Cell-Based Dose Response HTS to Identify Inhibitors of 5'UTR Stem-Loop Driven Prion Protein mRNA Translation in H4 Neuroglioblastoma Cells. [Related pubchem assays: 1827 (Project Summary), 1813 (Primary HTS)]; assay type: functional
[14] = inhibitors of SNCA 5'UTR-driven reporter translation, confirmation, H4 neuroglioma cells, luminescence (AID 1988); assay type: functional, cell-based
[15] = target: Cytochrome P450 2D6 (Homo sapiens, UniProt P10635);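 note: CYP2D6 member of a cytochrome P450 panel assay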
[16] = target: Beta-lactamase (Salmonella choleraesuis (strain SC-B67), UniProt Q5J463); assay: Epi-absorbance-based counterscreen for selective VIM-2 inhibitors: dose response biochemical high throughput screening assay to identify inhibitors of TEM-1 serine-beta-lactamase.
[17] = target: T3, Beta-lactamase (Pseudomonas aeruginosa, UniProt Q79MP6); assay: IMP-1 metallo-beta-lactamase inhibitors, dose response, selectivity assay for VIM-2 inhibitor project, biochemical, epi-absorbance (AID 1920)
[18] = target: T3, Beta-lactamase; assay: […] counterscreen for selective VIM-2 inhibitors: dose response biochemical high throughput screening assay to identify inhibitors of IMP-1 metallo-beta-lactamase.
[19] = target: NAD-dependent protein deacylase sirtuin-5, mitochondrial (Homo sapiens, UniProt Q9NXA8); assay: SIRT5 desuccinylase inhibitors, dose response, biochemical, fluorescence imaging, cherry-pick, set 5 (AID 720591);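 note: desuccinylation of succinyl peptide AMC substrate read as fluorescence after trypsin release; potency of inhibitors that lower fluorescence and may act on trypsin instead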
[20] = target: Galanin receptor type 3 (Homo sapiens, UniProt O60755); assay: Fluorescence-based cell-based primary high throughput dose response assay to identify antagonists of the Galanin Receptor 3 (GalR3).; assay type: functional
[21] = cells; assay type: functional, cell-based; conditions: HEK-CNG
[22] = target: Protein-tyrosine kinase 2-beta (Homo sapiens, UniProt Q14289);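 note: potency of inhibitors of PYK2 kinase phosphorylation of poly-GT substrate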
[23] = human group III sPLA2 inhibitors, dose response, biochemical, QFRET, IC50 (AID 743457);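 note: green fluorescence rise as the enzyme cleaves BODIPY PC-A2 in liposomes; potency for inhibition of the enzyme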
[24] = cells; assay type: functional, cell-based
[25] = target: T4, Trace amine-associated receptor 1 (Homo sapiens, UniProt Q96RJ0); assay: Fluorescence-based cell-based high throughput dose response assay to identify agonists of the human trace amine associated receptor 1 (TAAR1).; assay type: functional
T4 sequence (Q96RJ0 whole entry): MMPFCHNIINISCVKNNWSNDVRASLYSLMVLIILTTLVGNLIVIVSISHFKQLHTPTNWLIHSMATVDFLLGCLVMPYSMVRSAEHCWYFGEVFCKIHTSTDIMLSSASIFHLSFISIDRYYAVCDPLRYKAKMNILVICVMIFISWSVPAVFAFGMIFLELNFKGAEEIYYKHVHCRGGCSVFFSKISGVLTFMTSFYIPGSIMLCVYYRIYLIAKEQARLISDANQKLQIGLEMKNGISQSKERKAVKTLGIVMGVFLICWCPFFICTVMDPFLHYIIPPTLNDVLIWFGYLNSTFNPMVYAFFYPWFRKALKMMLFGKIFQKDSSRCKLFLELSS

[26] = target: T4, Trace amine-associated receptor 1; assay: Counterscreen for agonists of the human trace amine associated receptor 1 (hTAAR1): Fluorescence-based cell-based high throughput dose response assay to identify hTAAR1 agonist that also desensitize TAAR1 receptor response.; assay type: functional
[27] = cells; assay type: functional, cell-based; remark: listed apart in the source
[28] = target: T5, Sentrin-specific protease 1 (Homo sapiens, UniProt Q9P0U3); assay: potency of human SENP1 inhibitors, dose response, biochemical, kinetic FRET (AID 651697); assay type: functional; conditions: read-out: IC50_Mean
T5 sequence (Q9P0U3 whole entry): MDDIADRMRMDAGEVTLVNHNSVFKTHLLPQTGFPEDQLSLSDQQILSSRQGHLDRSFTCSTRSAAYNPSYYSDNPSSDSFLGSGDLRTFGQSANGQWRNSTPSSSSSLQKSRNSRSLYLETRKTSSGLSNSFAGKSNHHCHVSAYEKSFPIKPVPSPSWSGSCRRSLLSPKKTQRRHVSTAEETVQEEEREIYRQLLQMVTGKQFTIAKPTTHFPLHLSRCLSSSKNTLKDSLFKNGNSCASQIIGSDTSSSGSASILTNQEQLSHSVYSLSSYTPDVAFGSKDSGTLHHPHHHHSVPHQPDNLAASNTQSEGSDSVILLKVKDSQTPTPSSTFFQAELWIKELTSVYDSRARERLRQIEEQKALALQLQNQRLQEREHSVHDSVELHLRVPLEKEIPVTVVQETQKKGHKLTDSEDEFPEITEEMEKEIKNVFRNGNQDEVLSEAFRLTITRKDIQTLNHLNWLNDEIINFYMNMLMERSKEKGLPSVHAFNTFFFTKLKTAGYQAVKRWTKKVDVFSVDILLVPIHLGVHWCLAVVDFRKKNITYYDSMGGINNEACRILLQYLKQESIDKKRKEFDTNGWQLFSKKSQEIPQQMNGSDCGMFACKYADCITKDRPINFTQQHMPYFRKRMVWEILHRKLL

[29] = target: T5, Sentrin-specific protease 1; assay: Dose response confirmation of small molecule inhibitors of the catalytic domain of the SUMO protease, SENP1 in a FRET assay.; assay type: functional; conditions: read-out: IC50_Mean
[30] = target: Dual specificity tyrosine-phosphorylation-regulated kinase 1A (Rattus norvegicus, UniProt Q63470); assay type: biochemical, Homo sapiens
[31] = inhibitors of PGC1a acetylation in cells, dose response, cell-based, cherry-picked samples (AID 720514); assay type: functional;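 note: potency may reflect raised or lowered acetylation signal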
[32] = P. falciparum 3D7-ScDHODH growth inhibitors, dose response, SYBR Green, dry powder samples (AID 1159570); assay type: functional, cell-based;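 note: parasite growth measured after 72 hours of compound exposure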
[33] = HepG2 cell cytotoxicity, dose response, cytotoxicity control, plate reader, dry powder samples (AID 1159569); assay type: functional, cell-based;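 note: inhibitor potency with signal falling toward the positive control level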
[34] = P. falciparum Dd2 growth inhibitors, dose response, SYBR Green, cherry-picked samples (AID 1159567); assay type: functional, cell-based
[35] = P. falciparum Dd2 growth inhibitors, dose response, SYBR Green, dry powder samples (AID 1159566); assay type: functional, cell-based;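 note: potency for growth inhibition with lower SYBR green DNA signal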
[36] = P. falciparum ATP4 D1247Y mutant growth inhibitors, dose response, NITD609-resistant line, SYBR Green, dry powder (AID 1159571); assay type: functional, cell-based;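 note: parasites synchronized at ring stage by sorbitol before testing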

T3 sequence (Q79MP6 whole entry): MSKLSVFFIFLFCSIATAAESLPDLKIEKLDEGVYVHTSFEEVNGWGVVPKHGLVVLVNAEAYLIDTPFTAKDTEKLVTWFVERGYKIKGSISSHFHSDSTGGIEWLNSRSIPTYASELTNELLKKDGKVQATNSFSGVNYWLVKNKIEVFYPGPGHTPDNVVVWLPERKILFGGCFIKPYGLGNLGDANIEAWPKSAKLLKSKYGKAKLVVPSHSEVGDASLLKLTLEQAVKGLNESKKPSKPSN
Chain of Beta-lactamase (Salmonella choleraesuis (strain SC-B67), UniProt Q5J463) (Q5J463 whole entry): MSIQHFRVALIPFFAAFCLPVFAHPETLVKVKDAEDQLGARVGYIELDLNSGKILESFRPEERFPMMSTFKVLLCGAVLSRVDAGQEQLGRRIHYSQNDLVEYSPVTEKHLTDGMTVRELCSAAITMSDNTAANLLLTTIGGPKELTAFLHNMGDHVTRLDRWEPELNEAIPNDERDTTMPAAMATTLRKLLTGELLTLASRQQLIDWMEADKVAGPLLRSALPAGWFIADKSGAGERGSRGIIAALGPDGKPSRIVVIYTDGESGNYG
Chain of COUP transcription factor 2 (P24468 whole entry): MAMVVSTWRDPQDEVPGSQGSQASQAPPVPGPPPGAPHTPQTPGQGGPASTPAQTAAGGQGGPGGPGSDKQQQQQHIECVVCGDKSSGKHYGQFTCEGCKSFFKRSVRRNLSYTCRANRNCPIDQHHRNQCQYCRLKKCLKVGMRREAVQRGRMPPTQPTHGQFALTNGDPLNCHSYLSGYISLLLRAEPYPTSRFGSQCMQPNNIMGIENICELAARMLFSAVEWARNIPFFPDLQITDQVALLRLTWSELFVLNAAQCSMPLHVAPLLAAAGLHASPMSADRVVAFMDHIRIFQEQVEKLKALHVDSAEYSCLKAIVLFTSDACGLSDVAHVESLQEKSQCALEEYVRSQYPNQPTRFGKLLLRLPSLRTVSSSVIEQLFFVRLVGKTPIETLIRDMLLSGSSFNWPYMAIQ
Chain of Galanin receptor type 3 (O60755 whole entry): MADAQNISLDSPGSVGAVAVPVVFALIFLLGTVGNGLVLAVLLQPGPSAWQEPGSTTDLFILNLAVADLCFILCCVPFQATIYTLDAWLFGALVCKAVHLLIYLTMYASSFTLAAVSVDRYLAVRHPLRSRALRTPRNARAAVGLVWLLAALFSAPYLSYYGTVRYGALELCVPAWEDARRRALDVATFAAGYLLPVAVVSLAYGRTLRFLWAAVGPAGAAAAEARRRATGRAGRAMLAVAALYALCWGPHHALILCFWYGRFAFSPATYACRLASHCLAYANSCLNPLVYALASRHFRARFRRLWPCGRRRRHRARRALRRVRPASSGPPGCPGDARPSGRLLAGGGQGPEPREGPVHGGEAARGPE
Chain of Disintegrin and metalloproteinase domain-containing protein 17 (P78536 whole entry, the tested form may be a part): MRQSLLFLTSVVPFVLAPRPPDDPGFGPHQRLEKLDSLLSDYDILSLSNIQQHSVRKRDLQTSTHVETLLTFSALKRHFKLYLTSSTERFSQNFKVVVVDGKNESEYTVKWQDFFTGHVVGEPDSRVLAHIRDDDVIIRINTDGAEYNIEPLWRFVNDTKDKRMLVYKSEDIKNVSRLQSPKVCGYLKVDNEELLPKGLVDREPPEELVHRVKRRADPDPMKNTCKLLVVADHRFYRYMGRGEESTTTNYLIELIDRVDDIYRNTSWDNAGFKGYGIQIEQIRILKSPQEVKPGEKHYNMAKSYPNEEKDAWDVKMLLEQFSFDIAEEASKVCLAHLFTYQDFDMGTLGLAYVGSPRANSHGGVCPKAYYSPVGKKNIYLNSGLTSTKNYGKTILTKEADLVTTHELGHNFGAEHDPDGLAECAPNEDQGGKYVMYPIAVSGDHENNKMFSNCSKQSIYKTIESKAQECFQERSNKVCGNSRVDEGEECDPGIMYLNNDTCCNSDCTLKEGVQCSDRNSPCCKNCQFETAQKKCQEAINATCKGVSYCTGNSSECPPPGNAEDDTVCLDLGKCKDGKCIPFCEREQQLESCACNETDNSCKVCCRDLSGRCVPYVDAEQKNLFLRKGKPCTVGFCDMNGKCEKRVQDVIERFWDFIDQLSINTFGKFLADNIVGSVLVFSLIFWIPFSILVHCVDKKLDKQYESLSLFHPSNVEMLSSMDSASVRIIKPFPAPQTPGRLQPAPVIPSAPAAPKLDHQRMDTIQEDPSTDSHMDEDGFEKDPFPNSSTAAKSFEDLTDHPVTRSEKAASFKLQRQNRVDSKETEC
Chain of Protein-tyrosine kinase 2-beta (Q14289 whole entry): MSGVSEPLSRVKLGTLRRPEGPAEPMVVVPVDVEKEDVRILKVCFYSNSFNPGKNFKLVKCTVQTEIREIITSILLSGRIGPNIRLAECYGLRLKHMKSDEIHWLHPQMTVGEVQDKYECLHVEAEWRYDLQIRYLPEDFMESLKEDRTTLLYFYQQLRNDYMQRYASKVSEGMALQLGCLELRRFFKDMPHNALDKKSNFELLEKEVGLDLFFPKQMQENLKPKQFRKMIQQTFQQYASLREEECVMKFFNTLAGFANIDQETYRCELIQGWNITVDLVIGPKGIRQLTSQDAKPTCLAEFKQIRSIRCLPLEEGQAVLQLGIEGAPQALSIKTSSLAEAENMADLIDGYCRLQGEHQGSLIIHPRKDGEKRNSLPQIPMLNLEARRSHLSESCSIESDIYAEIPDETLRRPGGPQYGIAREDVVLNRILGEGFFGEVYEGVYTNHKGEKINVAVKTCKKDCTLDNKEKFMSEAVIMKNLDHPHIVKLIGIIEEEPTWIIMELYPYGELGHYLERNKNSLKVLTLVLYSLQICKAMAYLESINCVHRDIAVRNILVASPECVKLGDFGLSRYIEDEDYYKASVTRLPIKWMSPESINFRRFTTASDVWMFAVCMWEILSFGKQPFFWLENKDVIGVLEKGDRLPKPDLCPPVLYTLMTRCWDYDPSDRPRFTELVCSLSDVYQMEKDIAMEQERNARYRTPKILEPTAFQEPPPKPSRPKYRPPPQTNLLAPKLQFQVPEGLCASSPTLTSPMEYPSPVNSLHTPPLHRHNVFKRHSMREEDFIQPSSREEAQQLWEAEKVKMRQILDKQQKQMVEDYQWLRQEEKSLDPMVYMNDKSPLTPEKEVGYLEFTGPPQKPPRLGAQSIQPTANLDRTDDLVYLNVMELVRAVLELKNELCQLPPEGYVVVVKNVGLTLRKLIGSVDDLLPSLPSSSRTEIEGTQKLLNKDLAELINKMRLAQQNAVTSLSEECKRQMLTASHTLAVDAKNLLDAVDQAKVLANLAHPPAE
Chain of NAD-dependent protein deacylase sirtuin-5, mitochondrial (Q9NXA8 whole entry): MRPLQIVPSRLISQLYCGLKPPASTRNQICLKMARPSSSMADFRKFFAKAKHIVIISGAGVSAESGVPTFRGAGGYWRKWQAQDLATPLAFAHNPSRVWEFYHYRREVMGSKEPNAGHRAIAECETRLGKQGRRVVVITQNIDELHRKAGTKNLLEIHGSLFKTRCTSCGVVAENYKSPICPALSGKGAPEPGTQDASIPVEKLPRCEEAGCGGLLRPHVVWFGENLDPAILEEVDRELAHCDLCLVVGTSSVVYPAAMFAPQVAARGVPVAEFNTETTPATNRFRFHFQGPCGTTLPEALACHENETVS
Chain of Cytochrome P450 2D6 (P10635 whole entry): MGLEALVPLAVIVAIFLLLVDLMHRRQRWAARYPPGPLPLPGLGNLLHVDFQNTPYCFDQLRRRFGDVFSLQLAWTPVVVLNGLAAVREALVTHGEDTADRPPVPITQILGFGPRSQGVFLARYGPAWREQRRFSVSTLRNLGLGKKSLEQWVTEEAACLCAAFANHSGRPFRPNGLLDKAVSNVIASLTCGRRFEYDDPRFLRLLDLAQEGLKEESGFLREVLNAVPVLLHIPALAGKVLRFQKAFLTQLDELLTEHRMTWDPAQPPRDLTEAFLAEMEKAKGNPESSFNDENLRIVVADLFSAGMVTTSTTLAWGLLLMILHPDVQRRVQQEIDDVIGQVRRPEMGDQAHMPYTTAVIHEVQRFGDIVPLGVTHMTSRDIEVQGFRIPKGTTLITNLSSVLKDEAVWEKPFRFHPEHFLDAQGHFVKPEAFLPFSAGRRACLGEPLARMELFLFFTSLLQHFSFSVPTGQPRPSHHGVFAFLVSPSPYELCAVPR
Chain of G-protein coupled receptor 35 (Q9HC97 whole entry): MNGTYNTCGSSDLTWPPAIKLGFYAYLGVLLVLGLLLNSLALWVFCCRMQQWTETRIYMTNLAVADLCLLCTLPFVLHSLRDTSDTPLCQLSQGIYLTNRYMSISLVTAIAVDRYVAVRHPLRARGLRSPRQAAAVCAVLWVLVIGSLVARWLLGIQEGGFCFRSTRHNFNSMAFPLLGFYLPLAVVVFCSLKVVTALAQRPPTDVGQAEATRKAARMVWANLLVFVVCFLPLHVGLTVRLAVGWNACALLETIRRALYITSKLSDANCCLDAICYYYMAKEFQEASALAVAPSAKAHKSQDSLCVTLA

## CC1=CC(=Cc2sc3ccccc3[n+]2C)C=C(C)N1CC1CCCO1 (stereo unspecified)
[1]
  IC50: 1.44 µM (active)
[2]
  IC50: > 80 µM (inactive)
[3]
  AC50: 1.82 µM (active)
[4]
  AC50: 24.4 µM (active)
[5]
  IC50: 4.97 µM (active)

## COc1ccc(C2CC(O)(c3ccccc3)Oc3c(C)ccc(C)c32)cc1 (stereo unspecified)
[6]
  EC50: > 150 µM (not active)
[7]
  EC50: > 150 µM (not active)
[8]
  EC50: > 150 µM (not active)
[9]
  IC50: > 69.5 µM (inactive)
[10]
  IC50: 12.7 µM (inactive)
[11]
  CC50: 28.5 µM (active)

## CC(Oc1ccc(Cl)cc1)c1ccnn1S(=O)(=O)c1ccccc1 (stereo unspecified)
[12]
  EC50: 17.4 µM (active)
[13]
  EC50: > 120 µM (not active)
[14]
  EC50: > 120 µM (not active)
[9]
  IC50: > 69.5 µM (inactive)
[10]
  IC50: 66.4 µM (inactive)
[15]
  AC50: 14.1 µM (inconclusive)

## COc1ccccc1-c1n[nH]c(=S)n1Cc1ccco1
[16]
  IC50: > 59.6 µM (inactive)
[17]
  IC50: > 59.6 µM (inactive)
[18]
  IC50: > 59.6 µM (inactive)

## C=CCSc1nnc(NC(=O)c2cn(CC)c3nc(C)ccc3c2=O)s1
[19]
  AC50: > 30 µM (inactive)

## COc1cccc2[nH]c3c(N4CCC(C)CC4)ncnc3c12
[20]
  IC50: 0.379 µM (active)
[21]
  EC50: > 29.9 µM (inactive)

## O=P(O)(O)c1ccccc1OCCCCCOc1ccccc1P(=O)(O)O
[16]
  IC50: > 59.6 µM (inactive)
[17]
  IC50: > 59.6 µM (inactive)
[18]
  IC50: > 59.6 µM (inactive)
[22]
  IC50: 2.23 µM (active)

## COc1ccccc1N=C(S)NNC(=O)c1nn(C)cc1Cl
[23]
  IC50: > 122 µM (inactive)

## O=c1cc(Nc2ccc3c(c2)OCO3)[nH]c(=O)n1-c1ccc(Br)cc1
[24]
  IC50: > 29.9 µM (inactive)
[25]
  EC50: 5.11 µM (active)
[26]
  IC50: 21.9 µM (inactive)
[27]
  EC50: > 29.9 µM (inactive)

## CC(C)Cc1c(C#N)c(S)nc2c1CCCC2
[23]
  IC50: > 122 µM (inactive)

## O=C(O)/C=C/C(=O)NCCc1ccccc1
[24]
  IC50: > 29.9 µM (inactive)
[25]
  EC50: 0.153 µM (active)
[26]
  IC50: 1.19 µM (active)
[27]
  EC50: > 29.9 µM (inactive)

## CC1Cc2cc(-c3csc(NC(=O)Cc4ccccc4)n3)ccc2N1S(C)(=O)=O (stereo unspecified)
[5]
  IC50: 6.11 µM (active)

## CCC(=NN=C(CC)c1ccccc1O)c1ccccc1O
[28]
  IC50: 8.19 µM (active)
[29]
  IC50: 10.4 µM (active)

## O=C1NC(=S)SC1=Cc1cc(Br)ccc1O
[30]
  AC50: 8.94 µM (active)
[28]
  IC50: 14.7 µM (active)
[29]
  IC50: 2.57 µM (active)

## CCCCC[C@@H](/C=C/C1C(=O)C=C[C@H]1C/C=C\CCCC(=O)O)OC(C)=O (stereo partly specified)
[20]
  IC50: 1.09 µM (active)
[21]
  EC50: > 29.9 µM (inactive)

## CO[C@@H]1CN(C)C(=O)c2cc(NC(C)=O)ccc2OC[C@@H](C)N(Cc2ccccc2C(=O)O)C[C@@H]1C
[31]
  AC50: 23.6 µM (active)

## COc1cccc(CN(C)C[C@H]2OCc3ccccc3-c3c(n(C)c4ccccc34)C(=O)N([C@H](C)CO)C[C@@H]2C)c1
[32]
  AC50: 3.29 µM (active)
[33]
  AC50: 20.6 µM (active)
[34]
  AC50: 2.76 µM (active)
[35]
  AC50: 2.87 µM (active)
[36]
  AC50: 3.55 µM (active)
